Data taken from ChEMBL document CHEMBL5252511 (J Med Chem, 2016).

Legend:
[1] = Drug exposure in plasma of triple transgenic C57BL/6 mouse alzheimer disease model at 30 mg/kg,po and measured after 2 hrs; assay type: ADME, organism-based
[2] = Permeability of compound at pH 7.4 by PAMPA assay; assay type: ADME; settings: read-out: permeability
[3] = Permeability of compound at pH 5.5 by PAMPA assay; assay type: ADME; settings: read-out: permeability
[4] = Permeability across basolateral to apical side in human Caco2 cells; assay type: ADME, cell-based; settings: Caco-2, read-out: permeability
[5] = Permeability across apical to basolateral side in human Caco2 cells; assay type: ADME, cell-based; settings: Caco-2, read-out: permeability
[6] = Ratio of drug concentration in brain to plasma of triple transgenic C57BL/6 mouse alzheimer disease model at 30 mg/kg,po and measured after 2 hrs; assay type: ADME, organism-based
[7] = Drug exposure in brain of triple transgenic C57BL/6 mouse alzheimer disease model at 30 mg/kg,po and measured after 2 hrs; assay type: ADME, organism-based; settings: read-out: Ct

Row | concentration at 2 h [1] [nM] | Papp [2] [×10⁻⁶ cm/s] | Papp [3] [×10⁻⁶ cm/s] | Papp B→A [4] [×10⁻⁶ cm/s] | Papp A→B [5] [×10⁻⁶ cm/s] | Kp at 2 h [6] | concentration at 2 h [7] [nM] | Structure (SMILES)
1 | 47 | – | – | – | – | – | – | CCOc1ccncc1NC(=O)c1ccnc(NC(=O)C2CC2)c1
2 | – | 48.3 | 52.6 | 30.1 | 31.9 | 0.2 | 440 | O=C(Nc1cnccc1-c1ccccc1)c1ccnc(NC(=O)C2CC2)c1
3 | – | 126 | 90.4 | 27.9 | 35.4 | – | – | O=C(Nc1cnccc1-c1ccc(Cl)cc1)c1ccnc(NC(=O)C2CC2)c1
